Data reported in patent publication US12139481B2, “Compositions comprising macrocycle derivatives incorporating bridged macrocycles and methods of producing and using same” (Southwestern Oklahoma State University, priority 2015, dated 2024).

Columns and labels:
[1] = test system: L. donovani promastigotes; assay: Antileishmanial Alamar Blue assay on promastigotes; type: cell-based, Leishmania donovani; settings: for X more potent than Pentamidine: L. donovani, ratio of molar IC50 to Pentamidine; for L. donovani IC50 / IC50: promastigotes, 48 hours, Alamar Blue; for IC50: read-out: L. donavani IC50
Experimental: Methods: The compounds were screened in vitro against the promastigote forms of the leishmania parasites employing the Alamar Blue assay as discussed below.
Antileishmanial activity of the compounds was tested in vitro against a culture of L. donovani promastigotes, grown in RPMI 1640 medium supplemented with 10% fetal calf serum (FCS, Gibco Chem. Co., Grand Island, NY) at 26° C. A 3-day-old culture was diluted to 5×10^5 promastigotes/mL. Drug dilutions (50-3.1 μg/mL) were prepared directly in cell suspension in 96-well plates. Plates were incubated at 26° C. for 48 hours, and growth of leishmania promastigotes was determined by Alamar Blue assay. Standard fluorescence was measured on a FLUOstar® Galaxy plate reader (BMG Lab Technologies, Ortenberg, Germany) at an excitation wavelength of 544 nm and emission wavelength of 590 nm. Pentamidine and amphotericin B were used as the standard antileishmanial agents. Percent growth was calculated and plotted versus test concentration for computing the IC50 values.

C. glabrata ATCC 90030 = assay: Antifungal broth dilution assay against C. glabrata (modified CLSI); type: cell-based, Candida glabrata; settings: for C. glabrata IC50 / IC50: in vitro; for IC50: converted with molecular weight; for X more potent than Amphotericin B: molar IC50 ratio versus amphotericin B
Experimental: (§1) General Experimental Procedures. All organisms were obtained from the American Type Culture Collection (Manassas, VA) and include the fungi Candida albicans ATCC 90028, C. glabrata ATCC 90030, C. krusei ATCC 6258, and Cryptococcus neoformans ATCC 90113, and the bacteria Staphylococcus aureus ATCC 29213 and methicillin-resistant S. aureus ATCC 33591 (MRS). All organisms were tested using modified versions of the CLSI (formerly NCCLS) methods. For all organisms, optical density was used to monitor growth (NCCLS, Reference Method for Broth Dilution Antifungal Susceptibility Testing of Yeasts; Approved Standard M27-A2. National Committee on Clinical Laboratory Standards, 2002 22 (15); and NCCLS, Methods for Dilution Antimicrobial Susceptibility Tests for Bacteria that Grow Aerobically; Approved Standard, Seventh Edition M7-A7. National Committee on Clinical Laboratory Standards, 2006. 26(2)).
(§2) Samples (dissolved in DMSO) were serially-diluted in 20% DMSO/saline and transferred (10 μL) in duplicate to 96 well flat bottom microplates. Inocula were prepared by correcting the OD630 of microbe suspensions in incubation broth [RPMI 1640/0.2% dextrose/0.03% glutamine/MOPS @ pH 6.0 (Cellgro) for Candida spp., Sabouraud Dextrose for C. neoformans, and cation-adjusted Mueller-Hinton (Difco) @ pH 7.3 for Staphylococcus spp. to afford an assay volume of […] and final target inocula of: Candida spp. and C. neoformans: 1.5×10^3, and Staphylococcus spp.: 5.0×10^5 CFU/ml. Final sample test concentrations were 1/100th the DMSO stock concentration. […] All organisms were read at either 530 nm using the Biotek Powerwave XS plate reader (Bio-Tek Instruments, Vermont) prior to and after incubation: Candida spp. at 35° C. for 46-50 h, Staphylococcus spp. at 35° C. for 16-20 h, and C. neoformans at 35° C. for 70-74 h. IC50s (concentrations that afford 50% inhibition relative to controls) were calculated using XLfit 4.2 software (IDBS, Alameda, CA) using fit model 201. The MIC is defined as the lowest test concentration that allows no detectable growth. Minimum fungicidal or bactericidal concentrations were determined by removing 5 μl from each clear (or blue) well, transferring to fresh media, and incubating as previously mentioned. The MFC/MBC is defined as the lowest test concentration that kills the organism (allows no growth).
(§3) Primary Analysis. Samples were tested in duplicate at one test concentration (50 μg/mL), and percent inhibitions were calculated relative to blank and growth controls. Samples showing 50% inhibition in at least one test organism were selected for dose response (Secondary) studies.
(§4) Secondary Analysis. Extracts from the Primary Assay, and first-run pure compounds and column fractions were tested in duplicate at 3 test concentrations (5-fold dilutions). Samples dissolved to 20 mg/mL in DMSO were tested at 200, 40, and 8 μg/mL. Samples dissolved to 2 mg/mL in DMSO were tested at 20, 4, and 0.8 μg/mL.

[2] = test system: Cryptococcus neoformans ATCC 90113; assay: Antimicrobial microdilution assay against Cryptococcus neoformans (modified CLSI/NCCLS, optical density); type: cell-based; settings: for X more potent than Amphotericin B: C. neoformans, ratio of molar IC50 to Amphotericin B; for C. neoformans IC50 / IC50: in vitro, C. neoformans ATCC 90113; for IC50: read-out: C. neoformans IC50 (mol/L)
Outline: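 Fungicidal endpoint taken by subculturing 5 μL from each clear well onto agar, MFC being the lowest concentration with no regrowth. Duplicate wells of serially diluted compound (20% DMSO/saline) in RPMI pH 6.0, read at 630 nm pre- and post-incubation, under modified CLSI methods. IC50 means 50% growth inhibition against controls.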

[3] = test system: Staphylococcus aureus ATCC 29213; assay: Antibacterial broth dilution assay against S. aureus (modified CLSI); type: cell-based; settings: for S. aureus IC50 / IC50: in vitro; for IC50: converted with molecular weight; for X more potent than ciprofloxacen: molar IC50 ratio versus ciprofloxacen
Experimental: as §1, §2, §3, §4

Molecule	X more potent than Pentamidine [1]	L. donovani IC50 [1] [µg/mL]	IC50 [1] [µM]	C. glabrata IC50 (C. glabrata ATCC 90030) [µg/mL]	IC50 (C. glabrata ATCC 90030) [µM]	X more potent than Amphotericin B (C. glabrata ATCC 90030)	X more potent than Amphotericin B [2]	C. neoformans IC50 [2] [µg/mL]	IC50 [2] [µM]	S. aureus IC50 [3] [µg/mL]	IC50 [3] [µM]	X more potent than ciprofloxacen [3]
[p-(DCP-BMBCyclams)]Br4 [SLK26]	0.43	14.76	12.4	5.705	4.78	0.30						
CC(=O)[O-].CC(=O)[O-].CC(=O)[O-].CN1CCCN2CCN(CCCN(Cc3cc(CN4CCCN5CCN(C)CCCN(CC5)CC4)cc(CN4CCCN5CCN(C)CCCN(CC5)CC4)c3)CC2)CC1.F[P-](F)(F)(F)(F)F.F[P-](F)(F)(F)(F)F.F[P-](F)(F)(F)(F)F.[Cu+2].[Cu+2].[Cu+2] [BNS25, [Cu3(tris-CB-Cyclams)(OAc)3][PF6]3]				5.420	3.31	0.43	0.20	1.950	1.19			
[Co3(tris-CB-Cyclams)(OAc)1.51][PF6]4.5 [BNS24]				1.490	0.85	1.67	0.52	≤ 0.800	0.456			
[Zn2(m-cyclam-homocyclen)(OAc)2][PF6]2 [AW052B]	0.33	17.60	15.9				0.23	1.150	1.04	6.580	5.94	0.05
[Ni2(p-CB-cyclam-cyclen)(OAc)2][PF6]2 [CMB028]	0.19	30.69	28.4	4.490	4.16	0.34	0.19	1.330	1.23			
CN1CCN2CCN(CC1)CCN(Cc1ccccn1)CC2 [KRW32, Me1Pic1-CB-cyclen]				14.360	47.3	0.03	0.01	5.490	18.1			
Clc1cc(CN2CCN3CCN(CCN(Cc4ccc(CN5CCN6CCN(CC5)CCN(Cc5cc(Cl)nc(Cl)c5)CC6)cc4)CC3)CC2)cc(Cl)n1 [PW111A, p-dcp2-CB-cyclens]	0.34	12.89	15.7				4.88	0.040	0.0488	5.530	6.75	0.04
[m-(BMBCyclams)]Br2 [DJD05]	0.21	18.18	25.5	4.213	5.91	0.24	0.05	3.250	4.56			
CC(=O)[O-].CC(=O)[O-].CN1CCCN2CCN(CCCN(Cc3ccc(CN4CCCN5CCN(C)CCCN(CC5)CC4)cc3)CC2)CC1.F[P-](F)(F)(F)(F)F.F[P-](F)(F)(F)(F)F.[Zn+2].[Zn+2] [KS34, [Zn2(p-CB-cyclams)(OAc)2](PF6)2]	0.25	23.49		15.760		0.10	0.41	0.650				
[Cu2(p-CB-cyclam-cyclen)(OAc)2][PF6]2 [CMB029]				4.190	3.84	0.37	0.32	≤ 0.800	0.734			
[Co2(m-SB-cyclam-cyclen)(OAc)2][PF6]4•H2O [CMB032]				1.310	0.963	1.47	0.41	≤ 0.800	0.588			
O.[Cl][Fe-2]([Cl])([Cl])[Cl].[Fe+2].c1ccc(CN2CCCN3CCCN(CCCN(Cc4ccccc4)CC3)CC2)cc1 [BME09, [Fe(Bn2PBCyclam)][FeCl4]•H2O]	0.26	14.10	20.4				0.15	1.070	1.55	5.130	7.41	0.04
[Ni2(p-CB-Homocyclens)(OAc)2][PF6]2 [TJH378A]				5.150	4.77	0.30	0.03	7.540	6.98			
CC(=O)[O-].CC(=O)[O-].[Cu+2].c1ccc(CN2CCCN3CCCN(CCCN(Cc4ccccc4)CC3)CC2)cc1 [DJD20, Cu(Bn2PBCyclam)(OAc)2]	0.22	14.65	24.3				0.05	3.130	5.2	6.880	11.4	0.02
C1CNCCN2CCCNCCN(C1)CCC2.CC(=O)[O-].F[P-](F)(F)(F)(F)F.F[P-](F)(F)(F)(F)F.O.[Co+2].[NH4+] [SLK38B, [Co(H2PBCyclam)(OAc)]PF6•NH4PF6•H2O]				0.375	0.548	2.59	0.03	6.230	9.1			
CC(=O)[O-].CC(=O)[O-].F[P-](F)(F)(F)(F)F.F[P-](F)(F)(F)(F)F.O.O.[Co+2].[Co+2].c1cc(CN2CCNCCN3CCN(CC3)CC2)cc(CN2CCNCCN3CCN(CC3)CC2)c1 [OB36, [Co2(m-SB-Cyclens)(OAc)2][PF6]2•2H2O]				3.720	3.51	0.40	0.32	≤ 0.800	0.754			
[Co2(p-SB-cyclam-cyclen)(OAc)2][PF6]2 [CMB016A]	0.17	33.81	32.1	1.100	1.04	1.36	0.16	1.570	1.49			
CC(=O)[O-].F[P-](F)(F)(F)(F)F.O.[Co+2].c1ccc(CN2CCCNCCN(Cc3ccccc3)CCCNCC2)cc1 [BME07, [Co(Bn2Cyclam)(OAc)PF6•H2O]				0.597	0.903	1.57	0.02	6.980	10.6			
